Data reported in patent US11708369B2, “Heteroaromatic compounds having activity against RSV” (Janssen Sciences Ireland Unlimited Company, priority 2018, dated 2023).

How the values were obtained:
in vitro = settings: human
Description: The wells contain 0.05% DMSO per volume. Cells were incubated at 37° C. in a 5% CO2 atmosphere. […] In parallel, compounds were incubated for three days in a set of white 384-well microtiter plates (Corning) and the cytotoxicity of compounds in HeLa cells was determined by measuring the ATP content of the cells using the ATPlite kit (Perkin Elmer, Zaventem, Belgium) according to the manufacturer's instructions. The CC50 was defined as the 50% concentration for cytotoxicity.

rgRSV224 virus = assay: Antiviral activity: rgRSV224 (GFP) replication in HeLa cells; settings: human respiratory syncytial virus, 72 h, read-out: RSV HELA EC50
Description: Black 384-well clear-bottom microtiter plates (Corning, Amsterdam, The Netherlands) were filled via acoustic drop ejection using the echo liquid handler (Labcyte, Sunnyvale, Calif.). 200 nL of compound stock solutions (100% DMSO) were transferred to the assay plates. 9 serial 4-fold dilutions of compound were made, creating per quadrant the same compound concentration. The assay was initiated by adding 10 μL of culture medium to each well (RPMI medium without phenol red, 10% FBS-heat inactivated, 0.04% gentamycin (50 mg/mL). All addition steps are done by using a multidrop dispenser (Thermo Scientific, Erembodegem, Belgium). Next, rgRSV224 virus (MOI=1) diluted in culture medium was added to the plates. rgRSV224 virus is an engineered virus that includes an additional GFP gene (Hallak L K, Spillmann D, Collins P L, Peeples M E. Glycosaminoglycan sulfation requirements for respiratory syncytial virus infection; Journal of virology (2000), 74(22), 10508-13) and was in-licensed from the NIH (Bethesda, Md., USA). Finally, 20 μL of a HeLa cell suspension (3,000 cells/well) were plated. Medium, virus- and mock-infected controls were included in each test. The wells contain 0.05% DMSO per volume. Cells were incubated at 37° C. in a 5% CO2 atmosphere. Three days post-virus exposure, viral replication was quantified by measuring GFP expression in the cells by an in house developed MSM laser microscope (Tibotec, Beerse, Belgium). The EC50 was defined as the 50% inhibitory concentration for GFP expression. In parallel, compounds were incubated for three days in a set of white 384-well microtiter plates (Corning) and the cytotoxicity of compounds in HeLa cells was determined by measuring the ATP content of the cells using the ATPlite kit (Perkin Elmer, Zaventem, Belgium) according to the manufacturer's instructions. The CC50 was defined as the 50% concentration for cytotoxicity.

| SMILES | CC50 at 3 days (in vitro) | EC50 (rgRSV224 virus) |
| --- | --- | --- |
| C[C@@H]1c2ccccc2CCN1C(=O)c1cc(C2CC2)n2c(F)c(-c3ccc([C@H]4C[C@H]4C(=O)O)cc3F)nc2n1 (mixture of isomers) [Compound 26, cis-2-(4-{5-cyclopropyl-3-fluoro-7-[(1R)-1-methyl-1,2,3,4-tetrahydroisoquinoline-2-carbonyl]imidazo[1,2-a]pyrimidin-2-yl}-3-fluorophenyl)cyclopropane-1-carboxylic Acid] | 77.2 µM | 3420 nM |
| C[C@@H]1c2ccccc2CCN1C(=O)c1cc(C2CC2)n2nc(-c3ccc(C4C[C@@H]4C(=O)O)cc3F)nc2c1 (relative stereo) [Compound 17, cis-2-(4-{5-Cyclopropyl-7-[(1R)-1-methyl-1,2,3,4-tetrahydroisoquinoline-2-carbonyl]-[1,2,4]triazolo[1,5-a]pyridin-2-yl}-3-fluorophenyl)cyclopropane-1-carboxylic Acid] | > 100 µM | 2010 nM |
| C[C@@H]1c2ccccc2CCN1C(=O)c1cc(C2CC2)n2cc(-c3ccc(N4CC[C@H](C(N)=O)C4)cc3F)nc2n1 [Compound 28, (3S)-1-(4-{5-Cyclopropyl-7-[(1R)-1-methyl-1,2,3,4-tetrahydroisoquinoline-2-carbonyl]imidazo[1,2-a]pyrimidin-2-yl}-3-fluorophenyl)pyrrolidine-3-carboxamide] | 22.3 µM | 112 nM |
| C[C@@H]1c2ccccc2CCN1C(=O)c1cc2cc(-c3ccc(N4CC[C@H](C(=O)O)C4)cc3F)nn2c(C2CC2)n1 [Compound 21, (3S)-1-(4-{7-Cyclopropyl-5-[(1R)-1-methyl-1,2,3,4-tetrahydroisoquinoline-2-carbonyl]pyrazolo[1,5-c]pyrimidin-2-yl}-3-fluorophenyl)pyrrolidine-3-carboxylic Acid] | 29.8 µM | 564 nM |
| C[C@@H]1c2ccccc2CCN1C(=O)c1cc2cc(-c3ccc(N4CC[C@H](C(N)=O)C4)cc3F)nn2c(C2CC2)n1 [Compound 22, (3S)-1-(4-{7-Cyclopropyl-5-[(1R)-1-methyl-1,2,3,4-tetrahydroisoquinoline-2-carbonyl]pyrazolo[1,5-c]pyrimidin-2-yl}-3-fluorophenyl)pyrrolidine-3-carboxamide] | > 100 µM | 870 nM |
| CCc1cc(C(=O)N2CCc3ccccc3[C@H]2C)cc2cc(-c3ccc(N4CC[C@H](C(=O)O)C4)cc3F)cn12 [Compound 3, (3S)-1-(4-{5-Ethyl-7-[(1R)-1-methyl-1,2,3,4-tetrahydroisoquinoline-2-carbonyl]indolizin-2-yl}-3-fluorophenyl)pyrrolidine-3-carboxylic Acid] | 44 µM | 218 nM |
| C[C@@H]1c2ccccc2CCN1C(=O)c1cc(C2CC2)n2nc(-c3ccc(N4CC[C@H](C(=O)O)C4)cc3F)nc2c1 [Compound 19, (3S)-1-(4-{5-Cyclopropyl-7-[(1R)-1-methyl-1,2,3,4-tetrahydroisoquinoline-2-carbonyl]-[1,2,4]triazolo[1,5-a]pyridin-2-yl}-3-fluorophenyl)pyrrolidine-3-carboxylic Acid] | 60.9 µM | 100 nM |
| C[C@@H]1c2ccccc2CCN1C(=O)c1cc(C2CC2)n2c(F)c(-c3ccc([C@@H]4C[C@H]4C(=O)O)cc3F)nc2n1 (mixture of isomers) [Compound 25, trans-2-(4-{5-cyclopropyl-3-fluoro-7-[(1R)-1-methyl-1,2,3,4-tetrahydroisoquinoline-2-carbonyl]imidazo[1,2-a]pyrimidin-2-yl}-3-fluorophenyl)cyclopropane-1-carboxylic Acid] | 22.3 µM | 112 nM |
| C[C@@H]1c2ccccc2CCN1C(=O)c1cc(C2CC2)n2nc(-c3ccc(N4CC[C@H](C(N)=O)C4)cc3F)cc2c1 [Compound 8, (3S)-1-(4-{7-Cyclopropyl-5-[(1R)-1-methyl-1,2,3,4-tetrahydroisoquinoline-2-carbonyl]pyrazolo[1,5-a]pyridin-2-yl}-3-fluorophenyl)pyrrolidine-3-carboxamide] | 53.4 µM | 54 nM |
| C[C@@H]1c2ccccc2CCN1C(=O)c1cc(C2CC2)n2nc(-c3ccc(C4C[C@H]4C(N)=O)cc3F)nc2c1 (relative stereo) [Compound 18, trans-2-(4-{5-Cyclopropyl-7-[(1R)-1-methyl-1,2,3,4-tetrahydroisoquinoline-2-carbonyl]-[1,2,4]triazolo[1,5-a]pyridin-2-yl}-3-fluorophenyl)cyclopropane-1-carboxamide] | 47.9 µM | 178 nM |
| C[C@@H]1c2ccccc2CCN1C(=O)c1cc(C2CC2)n2nc(-c3ccc(C4C[C@H]4C(=O)O)cc3F)cc2c1F (relative stereo) [Compound 6, trans-2-(4-{7-Cyclopropyl-4-fluoro-5-[(1R)-1-methyl-1,2,3,4-tetrahydroisoquinoline-2-carbonyl]pyrazolo[1,5-a]pyridin-2-yl}-3-fluorophenyl)cyclopropane-1-carboxylic Acid] | 50.2 µM | 90 nM |
| C[C@@H]1c2ccccc2CCN1C(=O)c1cc(C2CC2)n2nc(-c3ccc(N4CC[C@H](C(=O)O)C4)cc3F)cc2c1 [Compound 7, (3S)-1-(4-{7-Cyclopropyl-5-[(1R)-1-methyl-1,2,3,4-tetrahydroisoquinoline-2-carbonyl]pyrazolo[1,5-a]pyridin-2-yl}-3-fluorophenyl)pyrrolidine-3-carboxylic Acid] | 48 µM | 64 nM |
| CCc1cc(C(=O)N2CCc3ccccc3[C@H]2C)cc2cc(-c3ccc([C@H]4C[C@@H]4C(=O)O)cc3F)cn12 [Compound 1, (1S,2S)-2-(4-{5-Ethyl-7-[(1R)-1-methyl-1,2,3,4-tetrahydroisoquinoline-2-carbonyl]indolizin-2-yl}-3-fluorophenyl)cyclopropane-1-carboxylic Acid] | 45.1 µM | 195 nM |
| CCc1cc(C(=O)N2CCc3ccccc3[C@H]2C)cc2cc(-c3ccc(C4C[C@H]4C(=O)O)cc3F)nn12 (relative stereo) [Compound 4, Trans-2-(4-{7-ethyl-5-[(1R)-1-methyl-1,2,3,4-tetrahydroisoquinoline-2-carbonyl]pyrazolo[1,5-a]pyridin-2-yl}-3-fluorophenyl)cyclopropane-1-carboxylic Acid] | 57.6 µM | 219 nM |
| CCc1cc(C(=O)N2CCc3ccccc3[C@H]2C)c(OC)c2cc(-c3ccc(C4C[C@H]4C(=O)O)cc3F)nn12 (relative stereo) [Compound 5, trans-2-(4-{7-Ethyl-4-methoxy-5-[(1R)-1-methyl-1,2,3,4-tetrahydroisoquinoline-2-carbonyl]pyrazolo[1,5-a]pyridin-2-yl}-3-fluorophenyl)cyclopropane-1-carboxylic Acid] | 47.2 µM | 1700 nM |
| C[C@@H]1c2ccccc2CCN1C(=O)c1cc(C2CC2)n2cc(-c3ccc(C4C[C@H]4C(=O)O)cc3F)nc2n1 (relative stereo) [Compound 24, trans-2-(4-{5-Cyclopropyl-7-[(1R)-1-methyl-1,2,3,4-tetrahydroisoquinoline-2-carbonyl]imidazo[1,2-a]pyrimidin-2-yl}-3-fluorophenyl)cyclopropane-1-carboxylic Acid] | 69.7 µM | 105 nM |
| C[C@@H]1c2ccccc2CCN1C(=O)c1cc(C2CC2)n2cc(-c3ccc(N4CC[C@H](C(=O)O)C4)cc3F)nc2n1 [Compound 27, (3S)-1-(4-{5-Cyclopropyl-7-[(1R)-1-methyl-1,2,3,4-tetrahydroisoquinoline-2-carbonyl]imidazo[1,2-a]pyrimidin-2-yl}-3-fluorophenyl)pyrrolidine-3-carboxylic Acid] | 40.4 µM | 159 nM |
| C[C@@H]1c2ccccc2CCN1C(=O)c1cc(C2CC2)n2nc(-c3ccc(N4CC[C@H](C(N)=O)C4)cc3F)cc2c1F [Compound 10, (3S)-1-(4-{7-Cyclopropyl-4-fluoro-5-[(1R)-1-methyl-1,2,3,4-tetrahydroisoquinoline-2-carbonyl]pyrazolo[1,5-a]pyridin-2-yl}-3-fluorophenyl)pyrrolidine-3-carboxamide] | 40.4 µM | 62 nM |
| CNC(=O)[C@H]1CCN(c2ccc(-c3cc4cc(C(=O)N5CCc6ccccc6[C@H]5C)nc(C5CC5)n4n3)c(F)c2)C1 [Compound 23, (3S)-1-(4-{7-Cyclopropyl-5-[(1R)-1-methyl-1,2,3,4-tetrahydroisoquinoline-2-carbonyl]pyrazolo[1,5-c]pyrimidin-2-yl}-3-fluorophenyl)-N-methylpyrrolidine-3-carboxamide] | > 100 µM | 882 nM |
| CCc1cc(C(=O)N2CCc3ccccc3[C@H]2C)c(C)c2cc(-c3ccc(N4CC[C@H](C(=O)O)C4)cc3F)nn12 [Compound 9, (3S)-1-(4-{7-Ethyl-4-methyl-5-[(1R)-1-methyl-1,2,3,4-tetrahydroisoquinoline-2-carbonyl]pyrazolo[1,5-a]pyridin-2-yl}-3-fluorophenyl)pyrrolidine-3-carboxylic Acid] | 50.6 µM | 596 nM |
| C[C@@H]1c2ccccc2CCN1C(=O)c1cc(C2CC2)n2nc(-c3ccc(N4CC[C@H](C(N)=O)C4)cc3F)nc2c1 [Compound 20, (3S)-1-(4-{5-Cyclopropyl-7-[(1R)-1-methyl-1,2,3,4-tetrahydroisoquinoline-2-carbonyl]-[1,2,4]triazolo[1,5-a]pyridin-2-yl}-3-fluorophenyl)pyrrolidine-3-carboxamide] | 45.6 µM | 102 nM |
| CCc1cc(C(=O)N2CCc3ccccc3[C@H]2C)cc2cc(-c3ccc([C@H]4C[C@@H]4C(N)=O)cc3F)cn12 [Compound 2] | 52.7 µM | 344 nM |
| C[C@@H]1c2ccccc2CCN1C(=O)c1cc(C2CC2)n2nc(-c3ccc(C4C[C@H]4C(=O)O)cc3F)nc2c1 (relative stereo) [Compound 16, trans-2-(4-{5-Cyclopropyl-7-[(1R)-1-methyl-1,2,3,4-tetrahydroisoquinoline-2-carbonyl]-[1,2,4]triazolo[1,5-a]pyridin-2-yl}-3-fluorophenyl)cyclopropane-1-carboxylic Acid] | 79.4 µM | 182 nM |
